# According to PubChem BioAssay AID1918954 (Molecular Pharmacology Branch, DTP, NCI, 2023):
# Tested on: MDA-MB-468 complex spheroids with HUVEC/MSC, viability
# Experiment: Anticancer human tumor MDA-MB-468 cell line growth inhibition;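 note: spheroids exposed to agents for seven days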;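 for viability, T/C: 100% = DMSO vehicle control viability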
# Conditions: for IC50: curve of first compound; for viability, T/C: stronger effect = lower value
# Outline: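 Complex spheroids of tumor cells with HUVEC and human MSCs, exposed to iadademstat combined with other agents. Each agent tested in half-log steps from near clinical Cmax (else 10 microM top), DMSO ≤0.25%.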
# [1] = second compound 0.1 µM, first compound 0.0316 µM
# [2] = second compound 0.1 µM, first compound 0.1 µM
# [3] = second compound 0.1 µM, first compound 0.316 µM
# [4] = second compound 0.1 µM, first compound 1 µM
# [5] = second compound 0.1 µM, first compound 3.16 µM
# [6] = second compound 0.1 µM, first compound 10 µM
# [7] = second compound 0.316 µM, first compound 0.0316 µM
# [8] = second compound 0.316 µM, first compound 0.1 µM
# [9] = second compound 0.316 µM, first compound 0.316 µM
# [10] = second compound 0.316 µM, first compound 1 µM
# [11] = second compound 0.316 µM, first compound 3.16 µM
# [12] = second compound 0.316 µM, first compound 10 µM
# [13] = second compound 1 µM, first compound 0.0316 µM
# [14] = second compound 1 µM, first compound 0.1 µM
# [15] = second compound 1 µM, first compound 0.316 µM
# [16] = second compound 1 µM, first compound 1 µM
# [17] = second compound 1 µM, first compound 3.16 µM
# [18] = second compound 1 µM, first compound 10 µM
# [19] = second compound 3.16 µM, first compound 0.0316 µM
# [20] = second compound 3.16 µM, first compound 0.1 µM
# [21] = second compound 3.16 µM, first compound 0.316 µM
# [22] = second compound 3.16 µM, first compound 1 µM
# [23] = second compound 3.16 µM, first compound 3.16 µM
# [24] = second compound 3.16 µM, first compound 10 µM
# [25] = second compound 10 µM, first compound 0.0316 µM
# [26] = second compound 10 µM, first compound 0.1 µM
# [27] = second compound 10 µM, first compound 0.316 µM
# [28] = second compound 10 µM, first compound 1 µM
# [29] = second compound 10 µM, first compound 3.16 µM
# [30] = second compound 10 µM, first compound 10 µM
SMILES,IC50 (second compound 0.1 µM),IC50 (second compound 0.316 µM),IC50 (second compound 1 µM),IC50 (second compound 3.16 µM),IC50 (second compound 10 µM),"viability, T/C [1]","viability, T/C [2]","viability, T/C [3]","viability, T/C [4]","viability, T/C [7]","viability, T/C [8]","viability, T/C [9]","viability, T/C [10]","viability, T/C [13]","viability, T/C [14]","viability, T/C [15]","viability, T/C [16]","viability, T/C [19]","viability, T/C [20]","viability, T/C [21]",other results
CC(C)c1c(-c2ccccc2)nc2c(C#N)c[nH]n2c1=O + NC1CCC(NC2CC2c2ccccc2)CC1,> 10000 nM,> 10000 nM,> 10000 nM,> 10000 nM,> 10000 nM,96.1%,109%,109%,108%,99.2%,101%,84.3%,99.5%,102%,103%,96.3%,102%,82.2%,102%,77.7%,"viability, T/C [5]: 105%; viability, T/C [6]: 85.4%; viability, T/C [11]: 102%; viability, T/C [12]: 99.5%; viability, T/C [17]: 101%; viability, T/C [18]: 85.8%; viability, T/C [22]: 95.4%; viability, T/C [23]: 50.7%; viability, T/C [24]: 62.5%; viability, T/C [25]: 74%; viability, T/C [26]: 66.7%; viability, T/C [27]: 70.2%; viability, T/C [28]: 57.2%; viability, T/C [29]: 66%; viability, T/C [30]: 70.4%"
CC1COCCN1c1cc(-c2ccnn2C)c2ccnc(-c3ccn[nH]3)c2n1 (stereo not given) + NC1CCC(NC2CC2c2ccccc2)CC1,15.2 nM,16.2 nM,16 nM,12.2 nM,4.61 nM,42.3%,22.9%,15.6%,11.2%,38.2%,23%,16.5%,13.8%,37.3%,23.2%,16.4%,9.5%,38.9%,27.6%,18.4%,"viability, T/C (second compound 0.1 µM, first compound 0.00316 µM): 81.7%; viability, T/C (second compound 0.1 µM, first compound 0.01 µM): 54.2%; viability, T/C (second compound 0.316 µM, first compound 0.00316 µM): 68.7%; viability, T/C (second compound 0.316 µM, first compound 0.01 µM): 58.5%; viability, T/C (second compound 1 µM, first compound 0.00316 µM): 72.8%; viability, T/C (second compound 1 µM, first compound 0.01 µM): 59%; viability, T/C (second compound 3.16 µM, first compound 0.00316 µM): 60.4%; viability, T/C (second compound 3.16 µM, first compound 0.01 µM): 52.7%; viability, T/C [22]: 14.9%; viability, T/C (second compound 10 µM, first compound 0.00316 µM): 52.9%; viability, T/C (second compound 10 µM, first compound 0.01 µM): 44%; viability, T/C [25]: 30.1%; viability, T/C [26]: 19%; viability, T/C [27]: 17.4%; viability, T/C [28]: 13.4%"
COc1ccc([C@@H](O)c2cc(-c3ncnc4cc(N5CCOCC5)ccc34)c(F)cc2Cl)nn1 + NC1CCC(NC2CC2c2ccccc2)CC1,1070 nM,1160 nM,817 nM,832 nM,1340 nM,97.8%,83.5%,68%,50%,101%,83.7%,71.7%,52.3%,90.5%,86.9%,58.3%,45.9%,100%,64.9%,61.7%,"viability, T/C [5]: 35%; viability, T/C [6]: 12.8%; viability, T/C [11]: 33.6%; viability, T/C [12]: 13.1%; viability, T/C [17]: 33.9%; viability, T/C [18]: 12.5%; viability, T/C [22]: 55.4%; viability, T/C [23]: 33.2%; viability, T/C [24]: 15.6%; viability, T/C [25]: 51.3%; viability, T/C [26]: 58.3%; viability, T/C [27]: 57.5%; viability, T/C [28]: 55%; viability, T/C [29]: 35.2%; viability, T/C [30]: 12.7%"
